From PubChem BioAssay (NCI)
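All cell lines were grown in 96-well plates and treated with compound for 48 hours. GI50: concentration for 50% inhibition of growth. TGI marks complete inhibition of growth.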

What was measured:
Assay in all cases: NCI-60 cell line screen, 48 h
UACC-257 melanoma = system: UACC-257 melanoma
NCI-H460 lung = system: NCI-H460 lung
SF-295 CNS = system: SF-295 CNS
CCRF-CEM leukemia = system: CCRF-CEM leukemia
EKVX NSCLC = system: EKVX NSCLC
A549 NSCLC = system: A549 NSCLC
RPMI-8226 leukemia = system: RPMI-8226 leukemia
PC-3 prostate = system: PC-3 prostate
BT-549 breast = system: BT-549 breast
HS 578T breast = system: HS 578T breast

Cc1ccc(NC(=O)C2C(=O)C(=O)N(c3ccc(C)cc3)C2=O)cc1 (stereo not drawn)
TGI (UACC-257 melanoma): > 100 µM
TGI (NCI-H460 lung): > 100 µM
TGI (SF-295 CNS): > 100 µM
TGI (CCRF-CEM leukemia): > 100 µM
TGI (EKVX NSCLC): > 100 µM
TGI (A549 NSCLC): > 100 µM

O=C(O)c1ccc([N+](=O)[O-])c(P(=O)(O)O)c1
TGI (UACC-257 melanoma): > 100 µM
TGI (NCI-H460 lung): > 100 µM
TGI (RPMI-8226 leukemia): > 100 µM
TGI (SF-295 CNS): > 100 µM
TGI (PC-3 prostate): > 100 µM
TGI (EKVX NSCLC): > 100 µM
TGI (BT-549 breast): > 100 µM
TGI (A549 NSCLC): > 100 µM

O=[N+]([O-])c1ccc(Oc2cccnc2)c([N+](=O)[O-])c1
GI50 (UACC-257 melanoma): 8.81 µM
TGI (UACC-257 melanoma): 22.3 µM
GI50 (NCI-H460 lung): 10.5 µM
TGI (NCI-H460 lung): 47.8 µM
GI50 (RPMI-8226 leukemia): 4.07 µM
TGI (RPMI-8226 leukemia): 62.6 µM
GI50 (SF-295 CNS): 18.6 µM
TGI (SF-295 CNS): > 100 µM
GI50 (PC-3 prostate): 4.98 µM
TGI (PC-3 prostate): 36.4 µM
GI50 (CCRF-CEM leukemia): 3.22 µM
TGI (CCRF-CEM leukemia): 24.8 µM
GI50 (EKVX NSCLC): 14.6 µM
TGI (EKVX NSCLC): 32.2 µM
GI50 (BT-549 breast): 3.73 µM
TGI (BT-549 breast): 29 µM
GI50 (HS 578T breast): 46 µM
TGI (HS 578T breast): > 100 µM

S=c1cn[nH]c2ccc(Br)cc12
TGI (UACC-257 melanoma): > 100 µM
TGI (NCI-H460 lung): > 100 µM
TGI (RPMI-8226 leukemia): > 100 µM
TGI (SF-295 CNS): > 100 µM
TGI (CCRF-CEM leukemia): > 100 µM
TGI (EKVX NSCLC): 75.3 µM
TGI (BT-549 breast): > 100 µM
TGI (A549 NSCLC): > 100 µM
TGI (HS 578T breast): > 100 µM

S=C1CNC(=S)CN1
TGI (UACC-257 melanoma): > 100 µM
TGI (NCI-H460 lung): > 100 µM
TGI (RPMI-8226 leukemia): > 100 µM
TGI (SF-295 CNS): > 100 µM
TGI (CCRF-CEM leukemia): > 100 µM
TGI (A549 NSCLC): > 100 µM

CCCCN(CCCC)c1cc(C(=O)CCCCCN)c2ccccc2n1
GI50 (UACC-257 melanoma): 1.76 µM
TGI (UACC-257 melanoma): 3.5 µM
GI50 (RPMI-8226 leukemia): 2.95 µM
TGI (RPMI-8226 leukemia): 6.53 µM
GI50 (SF-295 CNS): 1.86 µM
TGI (SF-295 CNS): 3.85 µM
GI50 (PC-3 prostate): 2.56 µM
TGI (PC-3 prostate): 6.07 µM
GI50 (CCRF-CEM leukemia): 3.2 µM
TGI (CCRF-CEM leukemia): 7.32 µM
GI50 (EKVX NSCLC): 4.99 µM
TGI (EKVX NSCLC): 23.1 µM
GI50 (BT-549 breast): 8.57 µM
TGI (BT-549 breast): 23.4 µM
GI50 (A549 NSCLC): 1.78 µM
TGI (A549 NSCLC): 3.38 µM
GI50 (HS 578T breast): 2.13 µM
TGI (HS 578T breast): 6.05 µM

CCOC(=O)/C(=C/c1cc(OC)ccc1OC)CC(=O)O
TGI (UACC-257 melanoma): > 100 µM
TGI (NCI-H460 lung): > 100 µM
TGI (RPMI-8226 leukemia): > 31.6 µM
TGI (SF-295 CNS): > 100 µM
TGI (CCRF-CEM leukemia): > 31.6 µM
TGI (EKVX NSCLC): > 100 µM
TGI (A549 NSCLC): > 100 µM

C=CCOC1=C2CC[C@H](O)[C@@]2(C)CCC1=O
TGI (UACC-257 melanoma): > 100 µM
TGI (NCI-H460 lung): > 100 µM
TGI (RPMI-8226 leukemia): > 100 µM
TGI (SF-295 CNS): > 100 µM
TGI (CCRF-CEM leukemia): > 100 µM
TGI (EKVX NSCLC): > 100 µM
TGI (A549 NSCLC): > 100 µM

Nc1ccn(C2OC(CO[P+](=O)OC3C(CO[P+](=O)OC4C(CO[P+](=O)OC5C(CO[P+](=O)OC6C(CO[P+](=O)OC7C(CO[P+](=O)OC8C(CO[P+](=O)OC9C(CO[P+](=O)OC%10C(CO[P+](=O)OC%11C(CO)OC(n%12ccc(N)nc%12=O)C%11(F)F)OC(n%11ccc(N)nc%11=O)C%10(F)F)OC(n%10ccc(N)nc%10=O)C9(F)F)OC(n9ccc(N)nc9=O)C8(F)F)OC(n8ccc(N)nc8=O)C7(F)F)OC(n7ccc(N)nc7=O)C6(F)F)OC(n6ccc(N)nc6=O)C5(F)F)OC(n5ccc(N)nc5=O)C4(F)F)OC(n4ccc(N)nc4=O)C3(F)F)C(O)C2(F)F)c(=O)n1 (stereo not drawn)
GI50 (UACC-257 melanoma): 0.859 µM
TGI (SF-295 CNS): > 100 µM
GI50 (PC-3 prostate): 80.5 µM
TGI (PC-3 prostate): > 100 µM
GI50 (EKVX NSCLC): > 100 µM
TGI (EKVX NSCLC): > 100 µM
GI50 (BT-549 breast): 0.426 µM
TGI (A549 NSCLC): > 100 µM
GI50 (HS 578T breast): > 100 µM

CCCCCCCCCCCCCCCCc1c(C(=O)OC)[nH]c(=S)[nH]c1=O
TGI (UACC-257 melanoma): > 50 µM
TGI (NCI-H460 lung): > 50 µM
TGI (RPMI-8226 leukemia): > 50 µM
TGI (SF-295 CNS): > 50 µM
TGI (CCRF-CEM leukemia): > 50 µM
TGI (EKVX NSCLC): > 50 µM
TGI (A549 NSCLC): > 50 µM

C=CC[Se]C(=O)c1ccccc1OC(C)=O
GI50 (UACC-257 melanoma): 2.09 µM
TGI (UACC-257 melanoma): 5 µM
GI50 (NCI-H460 lung): 0.36 µM
TGI (NCI-H460 lung): 1.84 µM
GI50 (RPMI-8226 leukemia): 2.22 µM
TGI (RPMI-8226 leukemia): 5.71 µM
GI50 (SF-295 CNS): 0.332 µM
TGI (SF-295 CNS): 1.32 µM
GI50 (PC-3 prostate): 0.717 µM
TGI (PC-3 prostate): 2.48 µM
GI50 (CCRF-CEM leukemia): 2.42 µM
TGI (CCRF-CEM leukemia): 7.06 µM
GI50 (BT-549 breast): 1.66 µM
TGI (BT-549 breast): 3.2 µM
GI50 (A549 NSCLC): 0.769 µM
TGI (A549 NSCLC): > 100 µM
GI50 (HS 578T breast): 1.83 µM
TGI (HS 578T breast): 6.24 µM

Cc1cc(=O)[nH]c(CNC(=O)c2cccc3ccccc23)n1
TGI (UACC-257 melanoma): > 100 µM
TGI (NCI-H460 lung): > 100 µM
TGI (SF-295 CNS): > 100 µM
TGI (CCRF-CEM leukemia): > 100 µM
TGI (EKVX NSCLC): > 100 µM
TGI (A549 NSCLC): > 100 µM

C[CH2][Sn]1([CH2]C)[O]C2C(O)OC(CO)C(O)C2[O]1 (stereo not drawn)
GI50 (UACC-257 melanoma): 14.4 µM
TGI (UACC-257 melanoma): 31.8 µM
GI50 (NCI-H460 lung): > 100 µM
TGI (NCI-H460 lung): > 100 µM
GI50 (RPMI-8226 leukemia): 7.16 µM
TGI (RPMI-8226 leukemia): 23.8 µM
GI50 (SF-295 CNS): > 100 µM
TGI (SF-295 CNS): > 100 µM
GI50 (PC-3 prostate): > 100 µM
TGI (PC-3 prostate): > 100 µM
GI50 (A549 NSCLC): > 100 µM
TGI (A549 NSCLC): > 100 µM
GI50 (HS 578T breast): 25.9 µM
TGI (HS 578T breast): > 100 µM

[Ce+3].[Cl-].[O-]/N=C(\c1ccccc1)c1ccccn1.[O-]/N=C(\c1ccccc1)c1ccccn1.[O-]/N=C(\c1ccccc1)c1ccccn1
GI50 (UACC-257 melanoma): 38 µM
TGI (UACC-257 melanoma): > 100 µM
GI50 (NCI-H460 lung): 47.1 µM
TGI (NCI-H460 lung): > 100 µM
GI50 (RPMI-8226 leukemia): 59.7 µM
TGI (RPMI-8226 leukemia): > 100 µM
GI50 (SF-295 CNS): 37.2 µM
TGI (SF-295 CNS): > 100 µM
GI50 (CCRF-CEM leukemia): 29.3 µM
TGI (CCRF-CEM leukemia): > 100 µM
GI50 (EKVX NSCLC): 30.2 µM
TGI (EKVX NSCLC): > 100 µM
GI50 (A549 NSCLC): 42.4 µM
TGI (A549 NSCLC): > 100 µM

c1ccc2c(c1)nnn1c3cnccc3nc21
TGI (UACC-257 melanoma): > 100 µM
TGI (NCI-H460 lung): 37.4 µM
TGI (RPMI-8226 leukemia): 58.8 µM
TGI (SF-295 CNS): > 100 µM
TGI (CCRF-CEM leukemia): 44.3 µM
TGI (EKVX NSCLC): > 100 µM
TGI (A549 NSCLC): > 100 µM

COc1ccc(Nc2nc(NCc3ccccc3)c3ccccc3n2)cc1
GI50 (UACC-257 melanoma): 3.82 µM
TGI (UACC-257 melanoma): 13.8 µM
GI50 (NCI-H460 lung): 3.34 µM
TGI (NCI-H460 lung): 12.6 µM
GI50 (RPMI-8226 leukemia): 1.85 µM
TGI (RPMI-8226 leukemia): 4.85 µM
GI50 (SF-295 CNS): 4.78 µM
TGI (SF-295 CNS): 23.4 µM
GI50 (PC-3 prostate): 2.87 µM
TGI (PC-3 prostate): 12.6 µM
GI50 (CCRF-CEM leukemia): 2.76 µM
TGI (CCRF-CEM leukemia): 9.19 µM
GI50 (BT-549 breast): 4.57 µM
TGI (BT-549 breast): 18.2 µM
GI50 (A549 NSCLC): 3.78 µM
TGI (A549 NSCLC): 16.5 µM
GI50 (HS 578T breast): 10.9 µM
TGI (HS 578T breast): 30.5 µM

Nc1ccccc1S(=O)c1ccccc1 (stereo not drawn)
TGI (UACC-257 melanoma): > 1 µM
TGI (NCI-H460 lung): > 100 µM
TGI (RPMI-8226 leukemia): > 100 µM
TGI (SF-295 CNS): > 100 µM
TGI (CCRF-CEM leukemia): > 100 µM
TGI (EKVX NSCLC): > 100 µM
TGI (A549 NSCLC): > 100 µM

OCC1OC(n2ccc3cnccc32)CC1O (stereo not drawn)
TGI (UACC-257 melanoma): > 100 µM
TGI (NCI-H460 lung): > 100 µM
TGI (RPMI-8226 leukemia): > 100 µM
TGI (SF-295 CNS): > 100 µM
TGI (CCRF-CEM leukemia): > 100 µM
TGI (EKVX NSCLC): > 100 µM
TGI (A549 NSCLC): > 100 µM

Nc1ccccc1C#Cc1ccccc1C#Cc1ccccc1N
GI50 (UACC-257 melanoma): 30.1 µM
TGI (UACC-257 melanoma): > 100 µM
GI50 (NCI-H460 lung): 5.89 µM
TGI (NCI-H460 lung): > 100 µM
GI50 (SF-295 CNS): 3.13 µM
TGI (SF-295 CNS): 10.5 µM
GI50 (PC-3 prostate): 5.31 µM
TGI (PC-3 prostate): 23.3 µM
GI50 (CCRF-CEM leukemia): 3.21 µM
TGI (CCRF-CEM leukemia): 16.2 µM
GI50 (EKVX NSCLC): 8.03 µM
TGI (EKVX NSCLC): 32.8 µM
GI50 (BT-549 breast): 5.41 µM
TGI (BT-549 breast): 24.7 µM
GI50 (A549 NSCLC): 22.1 µM
TGI (A549 NSCLC): > 100 µM

COC(=O)C1C2CC3C(OC(=O)C31)C2I (stereo not drawn)
TGI (UACC-257 melanoma): > 100 µM
TGI (NCI-H460 lung): > 100 µM
TGI (RPMI-8226 leukemia): > 100 µM
TGI (SF-295 CNS): > 100 µM
TGI (EKVX NSCLC): > 100 µM
TGI (A549 NSCLC): > 100 µM
